biological target: T1, human adenosine A2b receptor (Homo sapiens, UniProt P29275); experiment: Cellular in vitro reporter gene test for A2b receptor activity (antagonism of NECA); assay type: cell-based; parameters: expressed in transfected cells; host or cells: CHO-K1 (Chinese hamster ovary) with CRE-luciferase reporter; conditions: recombinant CHO-K1 cells, CRE-luciferase reporter, co-incubation with EC50 concentration of NECA, 3 hours
T1 sequence (P29275 1-332): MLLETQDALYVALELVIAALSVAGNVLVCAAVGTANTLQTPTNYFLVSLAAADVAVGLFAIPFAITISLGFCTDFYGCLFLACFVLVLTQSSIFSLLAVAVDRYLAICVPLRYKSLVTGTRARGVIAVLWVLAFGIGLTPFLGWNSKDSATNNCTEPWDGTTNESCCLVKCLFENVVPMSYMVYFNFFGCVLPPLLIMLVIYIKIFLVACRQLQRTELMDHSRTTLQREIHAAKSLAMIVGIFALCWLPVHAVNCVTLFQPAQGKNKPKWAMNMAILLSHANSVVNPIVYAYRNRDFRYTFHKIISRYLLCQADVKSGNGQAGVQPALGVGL
Method in brief: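 Antagonism measured as block of NECA-induced, cAMP/CRE-dependent luciferase expression in recombinant A2b CHO-K1 cells. NECA used at the EC50 set in a pre-experiment on each test day; luminescence detected after 3 h. Reported as IC50, partly averaged and rounded to two significant figures.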

Row | SMILES | IC50 [µM]
1 | Cc1c(CN2CCNC2=NC#N)sc2c1c(=O)n(C1(C)CC1)c(=O)n2CCC(F)(F)F [Example 57, [1-{[5-Methyl-3-(1-methylcyclopropyl)-2,4-dioxo-1-(3,3,3-trifluoropropyl)-1,2,3,4-tetrahydrothieno[2,3-d]pyrimidin-6-yl]methyl}imidazolidin-2-ylidene]cyanamide] | 0.0044
2 | Cc1c(Cn2cc[nH]c2=O)sc2c1c(=O)n(C1(C)CC1)c(=O)n2CCC(F)(F)F [Example 214, 5-Methyl-3-(1-methylcyclopropyl)-6-[(2-oxo-2,3-dihydro-1H-imidazol-1-yl)methyl]-1-(3,3,3-trifluoropropyl)thieno[2,3-d]pyrimidine-2,4(1H,3H)-dione] | 0.01
3 | Cc1c(CN2CCNC2=O)sc2c1c(=O)n(C1CC1C)c(=O)n2CC(F)F (single isomer, unassigned) [Example 235, 1-(2,2-Difluoroethyl)-5-methyl-3-(2-methylcyclopropyl)-6-[(2-oxoimidazolidin-1-yl)methyl]thieno[2,3-d]pyrimidine-2,4(1H,3H)-dione] | 0.018
4 | Cc1c(Cn2nc[nH]c2=O)sc2c1c(=O)n([C@H]1C[C@@H]1C)c(=O)n2C [Example 220, 1,5-Dimethyl-3-[(1S,2S)-2-methylcyclopropyl]-6-[(5-oxo-4,5-dihydro-1H-1,2,4-triazol-1-yl)methyl]thieno[2,3-d]pyrimidine-2,4(1H,3H)-dione] | 0.033
5 | COCCn1c(=O)n([C@H]2C[C@H](OC)C2)c(=O)c2c(C)c(Cn3nc[nH]c3=O)sc21 [Example 153, 3-(trans-3-Methoxycyclobutyl)-1-(2-methoxyethyl)-5-methyl-6-[(5-oxo-4,5-dihydro-1H-1,2,4-triazol-1-yl)methyl]thieno[2,3-d]pyrimidine-2,4(1H,3H)-dione] | 0.22
6 | CCn1c(=O)n(C2CC2)c(=O)c2c(C)c(Cn3nc[nH]c3=O)sc21 [Example 194, 3-Cyclopropyl-1-ethyl-5-methyl-6-[(5-oxo-4,5-dihydro-1H-1,2,4-triazol-1-yl)methyl]thieno[2,3-d]pyrimidine-2,4(1H,3H)-dione] | 0.18
7 | Cc1c(Cn2nc[nH]c2=O)sc2c1c(=O)n(C1(C)CC1)c(=O)n2CC1CC1(F)F (racemic) [Example 66, 1-[(2,2-Difluorocyclopropyl)methyl]-5-methyl-3-(1-methylcyclopropyl)-6-[(5-oxo-4,5-dihydro-1H-1,2,4-triazol-1-yl)methyl]thieno[2,3-d]pyrimidine-2,4(1H,3H)-dione] | 0.14
8 | Cc1c(CN2CCNC2=O)sc2c1c(=O)n([C@H]1C[C@@H]1C)c(=O)n2CC1CC1(F)F (single isomer, unassigned) [Example 250] | 0.0011
9 | CCCCn1c(=O)n([C@H]2C[C@@H]2C)c(=O)c2c(C)c(Cn3nc[nH]c3=O)sc21 [Example 318, 1-Butyl-5-methyl-3-[(1S,2S)-2-methylcyclopropyl]-6-[(5-oxo-4,5-dihydro-H-1,2,4-triazol-1-yl)methyl]thieno[2,3-d]pyrimidine-2,4(1H,3H)-dione] | 0.012
10 | COCCn1c(=O)n(C2CC(F)(F)C2)c(=O)c2c(C)c(Cn3nc[nH]c3=O)sc21 [Example 129, 3-(3,3-Difluorocyclobutyl)-1-(2-methoxyethyl)-5-methyl-6-[(5-oxo-4,5-dihydro-H-1,2,4-triazol-1-yl)methyl]thieno[2,3-d]pyrimidine-2,4(1H,3H)-dione] | 0.28
11 | COCCn1c(=O)n(C2CC2C(F)(F)F)c(=O)c2c(C)c(Cn3nc[nH]c3=O)sc21 (single isomer, unassigned) [Example 299, 1-(2-Methoxyethyl)-5-methyl-6-[(5-oxo-4,5-dihydro-H-1,2,4-triazol-1-yl)methyl]-3-[2-(trifluoromethyl)cyclopropyl]thieno[2,3-d]pyrimidine-2,4(1H,3H)-dione] | 0.22
12 | Cc1c(Cn2nc[nH]c2=O)sc2c1c(=O)n(C1CC1)c(=O)n2CC1CCC(F)(F)C1 (single isomer, unassigned) [Example 210, 3-Cyclopropyl-1-[(3,3-difluorocyclopentyl)methyl]-5-methyl-6-[(5-oxo-4,5-dihydro-1H-1,2,4-triazol-1-yl)methyl]thieno[2,3-d]pyrimidine-2,4(1H,3H)-dione] | 0.2
13 | Cc1c(Cn2cc[nH]c2=O)sc2c1c(=O)n(C1CC1)c(=O)n2CC1CCCO1 (single isomer, unassigned) [Example 48, 3-Cyclopropyl-5-methyl-6-[(2-oxo-2,3-dihydro-H-imidazol-1-yl)methyl]-1-(tetrahydrofuran-2-ylmethyl)thieno[2,3-d]pyrimidine-2,4(1H,3H)-dione] | 0.056
14 | COCCn1c(=O)n(C2(C)CCC2)c(=O)c2c(C)c(CN3CCNC3=NC#N)sc21 [Example 140, [1-{[1-(2-Methoxyethyl)-5-methyl-3-(1-methylcyclobutyl)-2,4-dioxo-1,2,3,4-tetrahydrothieno[2,3-d]pyrimidin-6-yl]methyl}imidazolidine-2-ylidene]cyanamide] | 0.23
15 | Cc1c(CN2CCNC2=NC#N)sc2c1c(=O)n(C1CC1C)c(=O)n2CCOC(F)(F)F (racemic) [Example 264, [1-({5-Methyl-3-(2-methylcyclopropyl)-2,4-dioxo-1-[2-(trifluoromethoxy)ethyl]-1,2,3,4-tetrahydrothieno[2,3-d]pyrimidin-6-yl}methyl)imidazolidin-2-ylidene]cyanamide] | 0.016
16 | COC(=O)N=C1NCCN1Cc1sc2c(c1C)c(=O)n(C1CC1)c(=O)n2CC1CCCO1 (single isomer, unassigned) [Example 44, Methyl [1-{[3-cyclopropyl-5-methyl-2,4-dioxo-1-(tetrahydrofuran-2-ylmethyl)-1,2,3,4-tetrahydrothieno[2,3-d]pyrimidin-6-yl]methyl}imidazolidin-2-ylidene]carbamate] | 0.016
17 | COCCn1c(=O)n([C@H]2C[C@H](OC)C2)c(=O)c2c(C)c(CN3CCNC3=O)sc21 [Example 149, 3-(trans-3-Methoxycyclobutyl)-1-(2-methoxyethyl)-5-methyl-6-[(2-oxoimidazolidin-1-yl)methyl]thieno[2,3-d]pyrimidine-2,4(1H,3H)-dione] | 0.082
18 | COCCn1c(=O)n(C2CCC2)c(=O)c2c(C)c(Cn3nc[nH]c3=O)sc21 [Example 119, 3-Cyclobutyl-1-(2-methoxyethyl)-5-methyl-6-[(5-oxo-4,5-dihydro-H-1,2,4-triazol-1-yl)methyl]thieno[2,3-d]pyrimidine-2,4(1H,3H)-dione] | 0.012
19 | Cc1c(CN2CCNC(=O)C2=O)sc2c1c(=O)n(C1CCCC1)c(=O)n2CCC(F)(F)F [Example 187, 3-Cyclopentyl-6-[(2,3-dioxopiperazin-1-yl)methyl]-5-methyl-1-(3,3,3-trifluoropropyl)thieno[2,3-d]pyrimidine-2,4(1H,3H)-dione] | 0.019
20 | COCCn1c(=O)n(C2CCCC2)c(=O)c2c(C)c(Cn3nc[nH]c3=O)sc21 [Example 193, 3-Cyclopentyl-1-(2-methoxyethyl)-5-methyl-6-[(5-oxo-4,5-dihydro-1H-1,2,4-triazol-1-yl)methyl]thieno[2,3-d]pyrimidine-2,4(1H,3H)-dione] | 0.23
21 | COCCn1c(=O)n(C2CC2OC)c(=O)c2c(C)c(CN3CCNC3=O)sc21 (single isomer, unassigned) [Example 307, 3-(2-Methoxycyclopropyl)-1-(2-methoxyethyl)-5-methyl-6-[(2-oxoimidazolidin-1-yl)methyl]thieno[2,3-d]pyrimidine-2,4(1H,3H)-dione] | 0.0081

Source: patent US20200016159A1, “N3-CYCLICALLY SUBSTITUTED THIENOURACILS AND USE THEREOF” (Bayer Aktiengesellschaft, priority 2016, published 2020)
